Assay results reported in paper PMC8306876, “A New N-Substituted 1H-Isoindole-1,3(2H)-Dione Derivative—Synthesis, Structure and Affinity for Cyclooxygenase Based on In Vitro Studies and Molecular Docking” (International Journal of Molecular Sciences, 2021).
Several values for one entry are separate records, joined by “and”; a condition that tells them apart may be missing. Identical values can stand only once. Marks after values point to notes of the source that are not given here.

How the values were obtained:
[1] = system: NHDF cells; assay: ROS level, DCF-DA assay after LPS preincubation; type: cell-based; details: 100 µM compound after LPS preincubation
Description: (§1) The ROS and RNS were evaluated using DCF–DA assay and Griess reagents, respectively. First, the cells were incubated with 50 µM LPS for 24 h to induce cell stress. Then, after the cells were washed, the 100 µM tested compounds were added for 1 h. Finally, the 50 µL supernatant was transferred to a new plate and added 50 µL of mixture A (1% sulfanilamide in 5% phosphoric acid) and B (0.1% N-(1-Naphthyl)ethylenediamine dihydrochloride) Griess reagents in a volume ratio 1:1 for 20 min in the dark. After that time, the absorbance was measured at 540 nm using a microplate reader. Simultaneously, the rest of the supernatant was removed from the above cell cultures, and 25 µM DCF–DA solution in MEM (without serum and phenol red) was added and left at 37 °C for 1 h and finally, determined fluorometrically with excitation at 485 nm and emission at 535 nm using a microplate reader.
(§2) The NO level was presented as concentration calculated using a standard curve (prepared in parallel with the conducted research). The ROS level was shown as ratio E/E0, where E0 is fluorescence with the positive control (cells incubated with 50 µM LPS) and E is a fluorescence with tested compound at 100 µM. Finally, the DNA damage was calculated as the ratio of cell nucleus diameter to halo diameter (a measure of DNA damage).
(§3) All statistical analysis performed were compared to the control—healthy cells (MTT assay), and positive control (incubated with 50 µM LPS) for DCF–DA, Griess, and DNA damaged. The data have a normal distribution and equality of variance, so ANOVA and post-hoc Scheffe methods were performed. The significance level was set at p < 0.05.

[2] = system: NHDF cells; assay: DNA damage (chromatin relaxation, nucleus/halo diameter) after LPS preincubation; type: cell-based; details: ratio of cell nucleus diameter to halo diameter; 1 h with compound after 24 h with 50 µM LPS; (SD) n = 6
Description: However, the cells were detached at the surface after 1h of incubation with the tested compound for evaluating DNA damage. The cells were then subjected to an analogous procedure as described in Grajzer et al..
as §2, §3

[3] = target: T1, COX-1 (Ovis aries, UniProt P05979); assay: Cyclooxygenase inhibition assay (Cayman kit No. 701050, COX peroxidase activity), COX-1; type: biochemical; details: incubation for 2 min; mean (SD); n = 3
T1 construct: purchased Cayman 701050
T1 sequence (P05979 25-600): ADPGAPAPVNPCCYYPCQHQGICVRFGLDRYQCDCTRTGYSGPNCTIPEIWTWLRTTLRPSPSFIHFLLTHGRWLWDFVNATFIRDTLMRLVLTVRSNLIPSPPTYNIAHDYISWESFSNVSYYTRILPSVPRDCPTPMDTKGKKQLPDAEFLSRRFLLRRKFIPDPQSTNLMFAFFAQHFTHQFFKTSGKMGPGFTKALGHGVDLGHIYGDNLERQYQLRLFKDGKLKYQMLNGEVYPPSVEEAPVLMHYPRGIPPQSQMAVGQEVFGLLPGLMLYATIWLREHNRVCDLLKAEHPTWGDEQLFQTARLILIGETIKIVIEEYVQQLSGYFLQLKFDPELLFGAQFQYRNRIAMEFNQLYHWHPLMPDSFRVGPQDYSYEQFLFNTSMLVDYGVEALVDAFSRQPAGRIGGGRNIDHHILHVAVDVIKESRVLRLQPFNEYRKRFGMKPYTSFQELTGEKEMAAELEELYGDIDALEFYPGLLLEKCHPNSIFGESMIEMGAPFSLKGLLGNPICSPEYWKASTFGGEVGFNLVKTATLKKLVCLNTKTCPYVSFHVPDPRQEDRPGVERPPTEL
Description: Cayman kit No. 701050 was used to evaluate the COX peroxidase activity of all compounds at a concentration of 100 µM. Absorbance was measured with a microplate reader at 590 nm. Concentrations at which 50% inhibition of enzyme activity occurred were calculated separately for COX-1 and COX-2 (IC50). Ratios of IC50 values (COX-2/COX-1) were also calculated

[4] = target: T2, COX-2 (Homo sapiens, UniProt P35354); assay: Cyclooxygenase inhibition assay (Cayman kit No. 701050, COX peroxidase activity), COX-2; type: biochemical; details: for IC50: incubation for 2 min, mean (SD), n = 3; for Ratio: COX-2/COX-1: ratio of IC50 values (COX-2/COX-1)
T2 construct: purchased Cayman 701050
T2 sequence (P35354 18-604): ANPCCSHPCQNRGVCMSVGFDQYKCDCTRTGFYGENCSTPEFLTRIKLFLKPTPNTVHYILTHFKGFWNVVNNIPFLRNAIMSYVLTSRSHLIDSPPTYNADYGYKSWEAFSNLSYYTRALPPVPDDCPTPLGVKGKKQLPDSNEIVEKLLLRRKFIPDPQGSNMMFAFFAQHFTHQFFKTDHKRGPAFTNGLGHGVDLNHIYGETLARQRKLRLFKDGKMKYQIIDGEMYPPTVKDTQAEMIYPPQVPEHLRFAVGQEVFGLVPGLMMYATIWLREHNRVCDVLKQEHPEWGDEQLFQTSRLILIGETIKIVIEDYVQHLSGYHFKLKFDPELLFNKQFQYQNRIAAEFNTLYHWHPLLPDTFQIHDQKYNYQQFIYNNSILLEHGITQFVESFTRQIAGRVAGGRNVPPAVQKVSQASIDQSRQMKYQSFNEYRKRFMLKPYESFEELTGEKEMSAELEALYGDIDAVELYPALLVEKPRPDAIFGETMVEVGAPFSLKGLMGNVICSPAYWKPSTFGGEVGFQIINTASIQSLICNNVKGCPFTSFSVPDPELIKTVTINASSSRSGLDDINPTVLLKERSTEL
Description: Absorbance was measured with a microplate reader at 590 nm. […] Ratios of IC50 values (COX-2/COX-1) were also calculated

[5] = system: NHDF cells; assay: Cell viability, MTT assay; type: cell-based; details: Homo sapiens, NHDF cell cultures, 24 h incubation, read-out: Cell Viability IC50 (µM) (SD)
Description: The NHDF cells obtained from ATCC (Manasas, VA, USA) were incubated with DMEM without phenol red supplemented with 10% fetal bovine serum (FBS), 2 mM L-glutamine, 1.25 µg/mL amphotericin B and 100 µg/mL gentamicin at 37 °C in a humidified 5% CO2/95% air atmosphere incubator. The cell culture was examined under the microscope twice a week, and cells were passaged if confluence was greater than 70% or the medium was replaced with fresh medium.
The […] were prepared by dissolving compounds in DMSO and then stored at −20 °C for up to 6 months. Before the biological experimental, the working solution was dissolved in the medium in the concentration range of 10, 50, and 100 µM.
To evaluated cell viability, an MTT assay was performed. After incubation of cells with the tested compounds for 24 h, the supernatant was removed, and 1 mg/mL MTT solution was applied for 2 h. Next, the formazan was dissolved with propanol for 30 min, and absorbance was measured at 570 nm using a microplate reader. The results are presented as IC50.

[6] = system: NHDF cells; assay: RNS (NO) level, Griess reagents after LPS preincubation; type: cell-based; details: 100 µM compound for 1 h after 24 h with 50 µM LPS; (SD) n = 6
Description: as §1, §2, §3

In the case of `COc1cccc(N2CCN(C(=O)CN3C(=O)c4ccccc4C3=O)CC2)c1` [Compound H, 2-{2-oxo-2-[4-(3-methoxy)-phenyl-1-piperazinyl]ethyl}-1H-isoindole-1,3(2H)-dione], the “scavenging of ROS compared to control” value [1] is reported as “approximately 29.0%”, the “DNA Damage” value [2] is reported as 17.1 (0.04) * and the IC50 [3] is reported as 176 µM. The IC50 [4] was 43.8 µM, the “Ratio: COX-2/COX-1” value [4] was 0.25 and the melting point was 155 to 156 °C. The IC50 [5] was 94.1 µM.
With `COc1ccc(N2CCN(C(=O)CN3C(=O)c4ccccc4C3=O)CC2)cc1` [Compound I, 2-{2-oxo-2-[4-(4-methoxy)-phenyl-1-piperazinyl]ethyl}-1H-isoindole-1,3(2H)-dione] the “scavenging of ROS compared to control” value [1] was “approximately 29.0%”, the “DNA Damage” value [2] was 19.2 (0.08) * and the IC50 [3] was 94.4 µM. The IC50 [4] was 46.2 µM, the “Ratio: COX-2/COX-1” value [4] was 0.49 and the melting point was 204 to 207 °C. For the same compound, the IC50 [5] was 93.3 µM.
With `O=C(CN1C(=O)c2ccccc2C1=O)N1CCN(c2cccc(C(F)(F)F)c2)CC1` [F, 2-{2-oxo-2-[4-(3-trifluoromethyl)-phenyl-1-piperazinyl]ethyl}-1H-isoindole-1,3(2H)-dione] the “DNA Damage” value [2] was 20.1 (0.03) *, the IC50 [3] was 171 µM and the “NO Level (pg/mL)” value [6] was 9.1 (0.07) pg/mL. For the same compound, the IC50 [4] was 47.6 µM, the “Ratio: COX-2/COX-1” value [4] was 0.28 and the melting point was 206 to 208 °C.
For `O=C1c2ccccc2C(=O)N1CN1CCN(C(c2ccccc2)c2ccccc2)CC1` [Compound D, N-[(4-(diphenyl-methyl)-1-piperazinyl)methyl]-1H-isoindole-1,3(2H)-dione], the “DNA Damage” value [2] was 17.3 (0.04) *, the IC50 [3] was 66.2 µM and the “NO Level (pg/mL)” value [6] was 7.4 (0.12) pg/mL. For the same compound, the IC50 [4] was 72.8 µM, the “Ratio: COX-2/COX-1” value [4] was 1.10 and the melting point was 206 to 207 °C. It also gave an IC50 [5] of 90.3 µM.
In the case of `O=C(CN1C(=O)c2ccccc2C1=O)N1CCN(c2ccccc2)CC1` [E, 2-[2-oxo-2-(4-phenyl-1-piperazinyl)ethyl]-1H-isoindole-1,3(2H)-dione], the “DNA Damage” value [2] is reported as 18.4 (0.07) *, the IC50 [3] is reported as 76.7 µM and the “NO Level (pg/mL)” value [6] is reported as 5.3 (0.07) * pg/mL. The IC50 [4] was 53.4 µM, the “Ratio: COX-2/COX-1” value [4] was 0.70 and the melting point was 180 °C.
For `COc1ccccc1N1CCN(C(=O)CN2C(=O)c3ccccc3C2=O)CC1` [G, 2-{2-oxo-2-[4-(2-methoxy)-phenyl-1-piperazinyl]ethyl}-1H-isoindole-1,3(2H)-dione], the “scavenging of ROS compared to control” value [1] was “approximately 29.0%”, the “DNA Damage” value [2] was 18.7 (0.07) * and the IC50 [3] was 101 µM. It also gave an IC50 [4] of 65.8 µM, a melting point of 152 to 154 °C and an IC50 [5] of 96.8 µM.
In the case of `O=C1c2ccccc2C(=O)N1CN1CCN(c2cccc(C(F)(F)F)c2)CC1` [Compound C], the “DNA Damage” value [2] is reported as 23.2 (0.07) *, the IC50 [3] is reported as 104 µM and the “NO Level (pg/mL)” value [6] is reported as 8.2 (0.03) * pg/mL. For the same compound, the IC50 [4] was 70.3 µM, the “Ratio: COX-2/COX-1” value [4] was 0.67 and the melting point was 147 to 148 °C.
In the case of `COc1ccccc1N1CCN(CN2C(=O)c3ccccc3C2=O)CC1` [B, N-[(4-(2-methoxyphenyl)-1-piperazinyl)methyl]-1H-isoindole-1,3(2H)-dione], the “DNA Damage” value [2] is reported as 19.6 (0.09) *, the IC50 [3] is reported as 71 µM and the IC50 [4] is reported as 68.5 µM. The “Ratio: COX-2/COX-1” value [4] was 1.10 and 0.96 and the melting point was 134 to 135 °C.
With `O=C1c2ccccc2C(=O)N1CN1CCN(c2ccccc2)CC1` [A, N-[(4-phenyl-1-piperazinyl)methyl]-1H-isoindole-1,3(2H)-dione] the “DNA Damage” value [2] was 15.2 (0.04) *, the IC50 [3] was 238 µM and the “NO Level (pg/mL)” value [6] was 6.4 (0.14) pg/mL. The IC50 [4] was 107 µM, the “Ratio: COX-2/COX-1” value [4] was 0.45 and the melting point was 160 to 161 °C.
